Measurements taken from ChEMBL document CHEMBL4387773, “Identification of potent, selective and orally bioavailable phenyl ((R)-3-phenylpyrrolidin-3-yl)sulfone analogues as RORγt inverse agonists” (Bioorg Med Chem Lett, 2019).

How the values were obtained:
PXR = molecular target: T1, PXR (Homo sapiens, UniProt O75469); test: Transactivation of PXR (unknown origin) expressed in human HepG2 cells assessed as maximum receptor activation response relative to control; assay type: cell-based; conditions: human HepG2 cells that express PXR, read-out: %max
T1 sequence (O75469 whole entry): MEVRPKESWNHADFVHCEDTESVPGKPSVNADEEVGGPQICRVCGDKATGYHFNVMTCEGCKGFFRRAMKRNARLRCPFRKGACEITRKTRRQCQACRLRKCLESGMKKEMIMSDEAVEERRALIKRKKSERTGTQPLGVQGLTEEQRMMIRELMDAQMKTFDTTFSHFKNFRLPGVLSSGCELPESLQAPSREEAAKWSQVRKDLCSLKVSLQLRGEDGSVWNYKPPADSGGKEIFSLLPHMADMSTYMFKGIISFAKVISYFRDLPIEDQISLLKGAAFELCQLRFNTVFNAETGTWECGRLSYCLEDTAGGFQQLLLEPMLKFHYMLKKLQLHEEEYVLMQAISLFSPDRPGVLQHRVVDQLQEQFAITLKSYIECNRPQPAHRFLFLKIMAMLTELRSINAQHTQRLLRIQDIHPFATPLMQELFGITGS

[1] = molecular target: T2, Nuclear receptor subfamily 1 group I member 2 (Homo sapiens, UniProt O75469); test: Transactivation of PXR (unknown origin) expressed in human HepG2 cells; assay type: cell-based
T2 sequence (O75469 whole entry): T1 sequence (O75469 whole entry)

[2] = Stability in human liver microsomes assessed as parent compound remaining after 10 mins; assay type: ADME, Microsome; conditions: liver microsomes, read-out: Stability
[3] = molecular target: T3, Oxysterols receptor LXR-beta (Homo sapiens, UniProt P55055); test: Transactivation of human GAL4-fused LXRbeta expressed in African green monkey CV1 cells; assay type: cell-based
T3 sequence (P55055 whole entry): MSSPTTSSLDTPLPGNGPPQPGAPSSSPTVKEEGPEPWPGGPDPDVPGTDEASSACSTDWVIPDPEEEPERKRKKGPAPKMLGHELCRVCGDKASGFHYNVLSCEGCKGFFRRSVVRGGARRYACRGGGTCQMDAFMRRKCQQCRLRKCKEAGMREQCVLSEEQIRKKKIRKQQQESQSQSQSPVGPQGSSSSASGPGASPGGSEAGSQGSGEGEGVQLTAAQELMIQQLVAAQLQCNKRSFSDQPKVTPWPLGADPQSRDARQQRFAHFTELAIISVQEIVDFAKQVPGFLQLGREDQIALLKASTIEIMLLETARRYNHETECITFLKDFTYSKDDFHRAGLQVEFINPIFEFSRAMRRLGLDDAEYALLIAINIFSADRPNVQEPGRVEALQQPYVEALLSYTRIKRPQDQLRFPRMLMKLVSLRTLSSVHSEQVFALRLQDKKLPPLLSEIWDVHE

[4] = molecular target: T4, Nuclear receptor ROR-alpha (Homo sapiens, UniProt P35398); test: Inverse agonist activity at human Gal4-fused RORalpha LBD (272 to 556 residues) expressed in human Jurkat cells measured after 18 hrs by steady-glo luciferase reporter gene assay; assay type: cell-based
T4 sequence (P35398 whole entry): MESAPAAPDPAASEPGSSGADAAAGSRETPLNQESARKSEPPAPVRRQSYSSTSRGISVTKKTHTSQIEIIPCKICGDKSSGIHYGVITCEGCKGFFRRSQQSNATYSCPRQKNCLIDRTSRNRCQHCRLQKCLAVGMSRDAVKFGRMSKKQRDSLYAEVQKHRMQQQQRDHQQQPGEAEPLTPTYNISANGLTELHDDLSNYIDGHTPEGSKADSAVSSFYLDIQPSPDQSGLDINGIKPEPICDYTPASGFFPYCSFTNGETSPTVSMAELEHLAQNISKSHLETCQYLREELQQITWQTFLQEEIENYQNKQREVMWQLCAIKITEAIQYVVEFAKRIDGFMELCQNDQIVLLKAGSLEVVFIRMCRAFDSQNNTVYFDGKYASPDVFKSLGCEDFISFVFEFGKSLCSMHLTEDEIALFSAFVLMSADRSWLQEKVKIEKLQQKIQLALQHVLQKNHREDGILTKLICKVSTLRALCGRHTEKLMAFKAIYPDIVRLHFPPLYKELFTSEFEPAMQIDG

[5] = Stability in mouse liver microsomes assessed as parent compound remaining after 10 mins; assay type: ADME, Microsome; conditions: liver microsomes, read-out: Stability
[6] = molecular target: T5, Oxysterols receptor LXR-alpha (Homo sapiens, UniProt Q13133); test: Transactivation of human GAL4-fused LXRalpha expressed in African green monkey CV1 cells; assay type: cell-based
T5 sequence (Q13133 whole entry): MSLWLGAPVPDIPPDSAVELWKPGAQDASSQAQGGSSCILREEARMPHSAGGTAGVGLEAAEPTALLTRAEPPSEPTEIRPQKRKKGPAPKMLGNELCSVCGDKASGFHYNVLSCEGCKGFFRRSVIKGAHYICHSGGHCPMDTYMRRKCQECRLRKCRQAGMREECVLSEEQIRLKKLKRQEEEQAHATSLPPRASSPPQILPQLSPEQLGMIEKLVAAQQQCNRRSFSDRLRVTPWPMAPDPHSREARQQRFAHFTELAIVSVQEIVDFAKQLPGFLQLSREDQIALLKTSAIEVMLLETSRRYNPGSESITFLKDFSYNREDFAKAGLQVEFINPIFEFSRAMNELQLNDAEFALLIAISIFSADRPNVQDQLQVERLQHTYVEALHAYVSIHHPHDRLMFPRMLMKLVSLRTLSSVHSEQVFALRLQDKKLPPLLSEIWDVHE

[7] = molecular target: T6, Nuclear receptor ROR-beta (Homo sapiens, UniProt Q92753); test: Inverse agonist activity at human Gal4-fused RORbeta LBD (200 to 559 residues) expressed in human Jurkat cells measured after 18 hrs by steady-glo luciferase reporter gene assay; assay type: cell-based
T6 sequence (Q92753 whole entry): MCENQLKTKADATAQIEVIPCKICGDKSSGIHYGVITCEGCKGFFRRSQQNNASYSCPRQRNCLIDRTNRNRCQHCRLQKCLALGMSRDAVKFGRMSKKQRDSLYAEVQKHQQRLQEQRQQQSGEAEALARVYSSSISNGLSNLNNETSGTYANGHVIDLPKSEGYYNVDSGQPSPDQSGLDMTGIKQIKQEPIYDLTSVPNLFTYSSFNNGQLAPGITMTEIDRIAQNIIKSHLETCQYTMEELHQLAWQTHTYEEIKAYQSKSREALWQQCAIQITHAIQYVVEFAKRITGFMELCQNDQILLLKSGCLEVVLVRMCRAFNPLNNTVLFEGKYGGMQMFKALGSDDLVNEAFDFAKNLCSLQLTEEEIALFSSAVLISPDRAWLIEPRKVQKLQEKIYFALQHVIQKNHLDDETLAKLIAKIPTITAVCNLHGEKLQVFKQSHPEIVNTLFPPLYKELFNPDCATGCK

[8] = molecular target: T7, Nuclear receptor ROR-gamma (Homo sapiens, UniProt P51449); test: Inverse agonist activity at human Gal4-fused RORgammat LBD (267 to 516 residues) expressed in human Jurkat cells measured after 18 hrs by steady-glo luciferase reporter gene assay; assay type: cell-based
T7 sequence (P51449 whole entry): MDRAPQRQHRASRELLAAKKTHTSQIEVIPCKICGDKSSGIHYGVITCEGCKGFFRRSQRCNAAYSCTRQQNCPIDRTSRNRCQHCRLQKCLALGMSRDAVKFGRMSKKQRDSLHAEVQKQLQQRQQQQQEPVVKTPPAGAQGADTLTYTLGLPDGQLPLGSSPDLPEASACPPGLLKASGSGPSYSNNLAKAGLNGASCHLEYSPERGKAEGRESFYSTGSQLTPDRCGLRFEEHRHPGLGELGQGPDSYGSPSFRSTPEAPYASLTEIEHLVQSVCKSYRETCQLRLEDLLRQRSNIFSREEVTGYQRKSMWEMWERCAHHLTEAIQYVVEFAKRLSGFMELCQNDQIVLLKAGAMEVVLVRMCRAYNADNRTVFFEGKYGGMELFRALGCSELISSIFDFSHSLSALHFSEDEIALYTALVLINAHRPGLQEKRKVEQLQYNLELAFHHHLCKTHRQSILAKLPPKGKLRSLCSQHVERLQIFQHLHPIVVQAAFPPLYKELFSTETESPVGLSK

## C[C@]1(C(=O)N2CC[C@](c3ccc(C(F)(C(F)(F)F)C(F)(F)F)cc3)(S(=O)(=O)c3ccc(F)cc3)C2)CC[C@H](C(=O)O)CC1
PXR
  Emax: 7%
[1]
  EC50: > 50 µM
[2]
  remaining at 10 min: 80%
[3]
  EC50: > 7.5 µM
[4]
  EC50: > 40 µM
[5]
  remaining at 10 min: 95%
[6]
  EC50: > 7.5 µM
[7]
  EC50: > 40 µM
[8]
  EC50: 0.056 µM

## C[C@]1(C(=O)N2CC[C@](c3ccc(C(F)(C(F)(F)F)C(F)(F)F)cc3)(S(=O)(=O)c3ccc(F)cc3)C2)CC[C@@H](C(=O)O)CC1
PXR
  Emax: 18%
[1]
  EC50: > 50 µM
[2]
  remaining at 10 min: 85%
[3]
  EC50: > 7.5 µM
[4]
  EC50: > 40 µM
[5]
  remaining at 10 min: 100%
[6]
  EC50: > 7.5 µM
[7]
  EC50: > 40 µM
[8]
  EC50: 0.776 µM
